The record followed here is EP1147083B1, “ARYLPIPERAZINYL-CYCLOHEXYL INDOLE DERIVATIVES FOR THE TREATMENT OF DEPRESSION” (Wyeth, priority 1999, dated 2000).

Read-outs that look alike come from different tables or passages of the source.

One may read the Emax as the maximal effect, on the per cent scale that the assay sets.

The target of one test is T1, serotonin transporter (Rattus norvegicus, UniProt P31652).
T1 construct: from tissue; host or cells: frontal cortex of male Sprague-Dawley rats
Nature of the test: Serotonin transporter affinity, 3H-paroxetine binding to frontal cortical membranes. Details: species or system male Sprague-Dawley rats. The procedure:
Briefly, frontal cortical membranes prepared from male Sprague-Dawley rats were incubated with ^3H-paroxetine (0.1 nM) for 60 minutes at 25°C. […] All reactions are terminated by the addition of ice cold Tris buffer followed by rapid filtration using a Tom Tech filtration device to separate bound from free ^3H-paroxetine.

The target of test [1] is T2, human 5-HT1A receptor subtype (Homo sapiens, UniProt P08908).
T2 construct: expressed in transfected cells
T2 sequence (P08908 1-422): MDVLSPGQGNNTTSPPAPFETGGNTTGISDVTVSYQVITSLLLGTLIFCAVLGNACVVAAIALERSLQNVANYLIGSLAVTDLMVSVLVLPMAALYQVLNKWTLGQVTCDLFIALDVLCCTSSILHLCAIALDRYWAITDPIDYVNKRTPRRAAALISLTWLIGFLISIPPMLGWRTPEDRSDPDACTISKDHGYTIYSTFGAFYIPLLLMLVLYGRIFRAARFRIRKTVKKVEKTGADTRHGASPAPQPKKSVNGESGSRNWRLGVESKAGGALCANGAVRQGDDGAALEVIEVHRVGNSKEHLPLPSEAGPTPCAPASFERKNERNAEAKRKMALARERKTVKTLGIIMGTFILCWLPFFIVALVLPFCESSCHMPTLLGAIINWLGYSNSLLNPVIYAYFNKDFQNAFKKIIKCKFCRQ
Nature of the test: 5-HT1A receptor binding assay with [3H]8-OH-DPAT on CHO cell membranes. The note with it: [3H]8-OH-DPAT 1.5 nM. The procedure:
(§1) The PCR cloning of the human 5-HT1A receptor subtype from a human genomic library has been described previously Chanda et al., Mol. Pharmacol., 43:516 (1993). A stable Chinese hamster ovary cell line expressing the human 5-HT1A receptor subtype (5-HT1A.CHO cells) was employed throughout this study. Cells were maintained in DMEM supplemented with 10% foetal calf serum, non-essential amino acids and penicillin/ streptomycin.
Cells were grown to 95-100% confluency as a monolayer before membranes were harvested for binding studies. Cells were gently scraped from the culture plates, transferred to centrifuge tubes, and washed twice by centrifugation (2000 rpm for 10 min., 4°C) in buffer (50 mM Tris; pH 7.5). The resulting pellets were aliquoted and placed at -80°C. On the day of assay, the cells were thawed on ice, and resuspended in buffer. Studies were conducted using [^3H]8-OH-DPAT as the radioligand. The binding assay was performed in 96 well microtiter plates in a final total volume of 250 µL of buffer. Competition experiments were performed by using 7 concentrations of unlabelled drug and a final ligand concentration of 1.5 nM. Nonspecific binding was determined in the presence of 10 µM 5HT. Saturation analysis was conducted by using [^3H]8-OH-DPAT at concentrations ranging from 0.3-30 nM. Following a 30 minute incubation at room temperature, the reaction was terminated by the addition of ice cold buffer and rapid filtration using a M-96 Brandel Cell Harvester (Gaithersburg, MD) through a GF/B filter presoaked for 30 minutes in 0.5% polyethyleneimine.

In test [2] the target is T3, 5-HT1A cloned receptor membrane fragments (Homo sapiens, UniProt P08908).
T3 construct: expressed in transfected cells
T3 sequence (P08908 1-422): T2 sequence (P08908 1-422)
As to the kind of experiment: [35S]-GTPγS binding assay. It is filed as biochemical. The note with it: value in brackets, or a lone % in the cell; maximum agonist response defined by excess 8-OH-DPAT; read-out: GTPγS (%EMax). The procedure:
The [^35S]-GTPγS binding assay was similar to that used by Lazareno and Birdsall, Br. J. Pharmacol. 109:1120 (1993). Briefly, 5-HT1A cloned receptor membrane fragments (as used for 5-HT1A receptor binding assays) were stored at -70°C until needed. When needed, membranes were rapidly thawed, centrifuged at 40,000 x g for 10 minutes and resuspended at 4 °C for 10 minutes in assay buffer (25 mM HEPES, 3 mM MgCl2, 100 mM NaCl, 1 mM EDTA, 10 uM GDP, […], pH 8.0). These membranes were then incubated for 30 minutes at 30°C with [^35S]GTPgS (1 nM) in the presence of vehicle, test compound (one to eight concentrations), or excess 8-OH-DPAT to define maximum agonist response. All reactions are terminated by the addition of ice cold Tris buffer followed by rapid filtration using a Tom Tech® filtration device to separate bound from free [^35S]GTPgS. Agonists produce an increase in the amount of [^35S]GTPgS bound whereas antagonists produce no increase in binding. Bound radioactivity was counted and analyzed as above.
Background: Binding of GTPγS marks nucleotide exchange on a G protein.

For test [3], the target named is T4, human 5-HT1A receptor subtype (5-HT1A.CHO cells) (Homo sapiens, UniProt P08908).
T4 construct: expressed in transfected cells
T4 sequence (P08908 1-422): T2 sequence (P08908 1-422)
Nature of the test: cAMP formation in forskolin-treated cells (cAMP SPA assay). Particulars: value in brackets; forskolin 1 uM. It is filed as cell-based. The procedure: as §1
The following assays were performed by incubating the cells with DMEM containing 25 mM HEPES, 5 mM theophylline and 10 µM pargyline for a period of 20 minutes at 37°C. Functional activity was assessed by treating the cells with forskolin (1 uM final concentration) followed immediately by test compound (6 concentrations) for an additional 10 minutes at 37°C. In separate experiments, 6 concentrations of antagonist were preincubated for 20 minutes prior to the addition of 10 nM 8-OH-DPAT and forskolin. The reaction was terminated by removal of the media and addition of 0.5 ml ice cold assay buffer. Plates were stored at -20°C prior to assessment of cAMP formation by a cAMP SPA assay (Amersham).
A general note: cAMP levels reflect the balance of adenylyl cyclase and phosphodiesterase activity.

The mark [4] stands for this setting: 3H-paroxetine 0.1 nM, rat frontal cortical membranes, read-out: ST (Kj, nM,).

T1 sequence (P31652 whole entry): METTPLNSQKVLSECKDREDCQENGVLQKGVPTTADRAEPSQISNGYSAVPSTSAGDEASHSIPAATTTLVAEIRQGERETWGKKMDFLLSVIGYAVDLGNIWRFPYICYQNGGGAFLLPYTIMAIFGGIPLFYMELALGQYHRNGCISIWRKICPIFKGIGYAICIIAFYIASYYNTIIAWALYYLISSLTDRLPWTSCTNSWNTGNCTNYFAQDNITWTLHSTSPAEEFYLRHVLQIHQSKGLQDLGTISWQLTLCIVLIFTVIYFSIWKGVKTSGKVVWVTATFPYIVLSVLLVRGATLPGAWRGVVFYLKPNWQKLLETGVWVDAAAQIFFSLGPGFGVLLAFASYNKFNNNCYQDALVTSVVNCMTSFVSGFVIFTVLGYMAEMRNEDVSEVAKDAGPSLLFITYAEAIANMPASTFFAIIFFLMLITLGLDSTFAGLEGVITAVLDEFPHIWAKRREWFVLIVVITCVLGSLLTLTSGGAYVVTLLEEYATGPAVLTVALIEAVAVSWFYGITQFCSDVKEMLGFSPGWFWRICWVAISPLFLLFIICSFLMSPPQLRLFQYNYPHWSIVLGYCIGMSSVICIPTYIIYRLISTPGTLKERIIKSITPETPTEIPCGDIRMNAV

In turn, `Cn1cc([C@H]2CC[C@@H](N3CCN(c4cccc5[nH]ccc45)CC3)CC2)c2cc(F)ccc21` [Example 38, 5-Fluoro-3-{cis-4-[4-(1H-indol-4-yl)-piperazinyl]-cyclohexyl}-1-methyl-1H-indole] registered a Ki at serotonin transporter of 7.22 nM.
`COc1ccccc1N1CCN([C@H]2CC[C@@H](c3c[nH]c4ccc(F)cc43)CC2)CC1` [Example 18, 5-Fluoro-3-{(cis)-4-[4-(2-methoxy-phenyl)-piperazin-1-yl] -cyclohexyl}-1H-indole]: the results for the Ki (at serotonin transporter (setting [4]); in test [1]) were 1.36 nM and 129 nM, respectively.
Turning to `N#Cc1ccc2[nH]cc(C3=CCC(N4CCN(c5cccc6[nH]ccc56)CC4)CC3)c2c1` (stereo not drawn) [Example 36, 3-{4-[4-(1H-Indol-4-yl)-piperazin-1-yl]-cyclohex-1-enyl}-1H-indole-5-carbonitrile], the Ki on serotonin transporter (setting [4]) worked out at 28 nM; in test [1] it was 12.3 nM. The Emax in test [2] came to 53%; in test [3] it was 80%.
With `COc1ccc(F)cc1N1CCN([C@H]2CC[C@@H](c3c[nH]c4ccc(F)cc43)CC2)CC1` [Example 22a, 5-Fluoro-3-{(cis)-4-[4-(5-fluoro-2-methoxy-phenyl)-piperazin-1-yl]-cyclohexyl}-1H-indole], the Ki is 4.96 nM at serotonin transporter (setting [4]) and 80.7 nM in test [1]. For the same compound, the Emax in test [2] and in test [3] was 0% throughout.
Turning to `COc1ccccc1N1CCN(C2CC=C(c3c[nH]c4ccc(F)cc34)CC2)CC1` (stereo not drawn) [Example 35, 5-Fluoro-3-{4-[4-(2-methoxy-phenyl)-piperazin-1-yl]cyclohex-1-enyl}-1H-indole], the Ki at serotonin transporter (setting [4]) stood at 91 nM; in test [1], 70.1 nM.
Regarding `Cn1ccc2c(N3CCN([C@H]4CC[C@@H](c5cn(C)c6cc(F)ccc65)CC4)CC3)cccc21` [Example 11, 6-Fluoro-1-methyl-3-{cis-4-[4-(1-methyl-1H-indol-4-yl)-1-piperazinyl]cyclohexyl}-1H-indole], the Ki at serotonin transporter (setting [4]) is 40 nM.
For `COc1ccc(F)cc1N1CCN([C@H]2CC[C@H](c3c[nH]c4ccc(F)cc43)CC2)CC1` [Example 22b, 5-Fluoro-3-{(trans)-4-[4-(5-fluoro-2-methoxy-phenyl)-piperazin-1-yl]-cyclohexyl}-1H-indole], the Ki on serotonin transporter (setting [4]) is 36.5 nM; in test [1], 11.6 nM. The Emax worked out at 4.5% in test [2] and 0% in test [3].
Take `Fc1cc2c(c(N3CCN([C@H]4CC[C@@H](c5c[nH]c6ccc(F)cc65)CC4)CC3)c1)OCCC2` [Example 31a, 5-Fluoro-3-{(1,4-cis)-4-[4-(6-fluoro-chroman-8-yl)-piperazin-1-yl]-cyclohexyl}-1H-indole]: the figures for the Ki (on serotonin transporter; in test [1]) were 13 nM and 142 nM, respectively.
With `Clc1ccc2[nH]cc([C@H]3CC[C@@H](N4CCN(c5cccc6[nH]ccc56)CC4)CC3)c2c1` [Example 6a, 5-Chloro-3-[cis-4-[4-(1H-indol-4-yl)-1-piperazinyl]cyclohexyl]-1H-indole], the results for the Ki (on serotonin transporter (setting [4]); in test [1]) were 28 nM and 326 nM, respectively. Further, the Emax was 53% in test [2] and 80% in test [3].
